Data set [1] has as its target T1, 5-HT2A receptor (Homo sapiens, UniProt P28223).
T1 construct: host or cells: HEK293
The experiment in a line: biochemical. Conditions: 1 nM [^3H]ketanserin, HEK293 stable cell line; read-out: 5-HT2A Receptor Ki (nM) ([^3H]ketanserin). It counts as binding. The method, then:
Affinity of the test compounds for the 5-HT2A receptor was determined in radioligand binding experiments with [^3H]ketanserin by WuXi AppTec (Hong Kong) Limited, using methods adapted from the literature and under conditions described in Table 1.

Data set [2] in a line: Metabolic stability in rat liver microsomes (RLM). Conditions: for t1/2: RLM, 0.50 mg protein per mL; for microsomal CLint at 1 μM: both, rat, pooled rat liver microsomes, pH 7.4.
The nature of data set [3]: Metabolic stability in human liver microsomes (HLM). It counts as in vitro ADME. Conditions: for t1/2: 1 μM, 0.50 mg protein per mL; for microsomal CLint at 1 μM: both sexes, human, pooled human liver microsomes, pH 7.4, 0.50 mg protein per mL. An excerpt: HLM Stability. Pooled HLM from adult male and female donors (Corning 452117) were used.
Background: Liver microsomes are a subcellular fraction often used to study metabolism.

Data set [4] can be described thus: Metabolic stability in mouse liver microsomes (MLM). It counts as in vitro ADME. Conditions: 0.50 mg protein per mL; for t1/2: MLM (CD-1), 1 μM; for microsomal CLint at 1 μM: mouse, pooled mouse liver microsomes, pH 7.4, MLM (CD-1). An excerpt:
MLM Stability Pooled MLM from CD-1 mice (BIOIVT M00501) were used.

A further data set deals with 5-HT1B receptor (Homo sapiens, UniProt P28222). The data set can be described thus: cAMP accumulation agonist assay at 5-HT1B. It counts as cell-based. Conditions: cAMP, agonist; read-out: 5-HT1B EC50. The protocol:
Disclosed compounds were tested for agonist activity at several serotonin receptor subtypes (5-HT2A, […], 5-HT2C, and 5-HT1A) using Ca^2+ flux functional assays and the 5-HT1B receptor using a cAMP accumulation assay, with the results summarized in Table 4. […] Potent agonist activity was also observed at the other serotonin receptors tested, although the selectivity profile among the receptors varied across compounds. […]. However, at the same time, the N-propyl compounds were more efficacious agonists at 5-HT2B than the corresponding N-methyl compounds. The selectivity of disclosed compounds for 5-HT2A over 5-HT2C and 5-HT1A was less predictable and varied widely across compounds, ranging from ˜1:6 to ˜20:1 (2C/2A) in the case of 5-HT2C and from ˜1:4 to >100:1 (1A/2A) in the case of 5-HT1A. […] An azetidinyl amide substituent tended to increase potency at 5-HT1A relative to 5-HT2A.
Functional Assay at 5-HT1B. Agonist activity at 5-HT1B was determined using a cAMP accumulation protocol at WuXi AppTec (Hong Kong) Limited according to their standard protocols. Briefly, stably transfected cells were plated in an OptiPlate-384 well plate, incubated at RT for 60 mins, and cAMP standard solution (800 nM, 10 μL) was added to the blank well. Then, 10 μL detection reagent was added to each well, the plate incubated for 60 mins at RT, and the plate read using EnVision.
(Cyclic AMP is a second messenger, typically raised through Gs and lowered through Gi signalling.)

The target in data set [5] is T1, 5-HT2A receptor. The experiment in a line: cell-based. It counts as cell-based. Conditions: Ca^2+ flux, agonist; read-out: 5-HT2A EC50. The method, then: (§1) Functional Assays at 5-HT2A, 5-HT2B, and 5-HT1A. Agonist activity at 5-HT2A, 5-HT2B, and 5-HT1A receptors was determined using a FLIPR Ca^2+ flux assay at WuXi AppTec (Hong Kong) Limited according to their standard protocols. Briefly, stably transfected cells expressing the receptor of interest (HEK293 for 5-HT2A and 5-HT2B; CHO cells for 5-HT1A) were grown and plated in a 384 well plate and incubated at 37° C. and 5% CO2 overnight. A solution of 250 mM probenecid in 1 mL FLIPR assay buffer was prepared fresh. This was combined with a fluorescent dye (Fluo-4 Direct™) to make a final assay concentration of 2.5 mM. […] The fluorescent dye was then added to the assay plate along with assay buffer to a final volume of 40 μL. The cell plate was incubated for 50 min at 37° C. and 5% CO2 and placed into the FLIPR Tetra along with the compound plate. 10 μL of references and compounds were then transferred from the compound plate into the cell plate and the fluorescent signal was read.

For the next data set, the target named is T2, 5-HT2B receptor (Homo sapiens, UniProt P41595).
T2 construct: host or cells: HEK293
T2 sequence (P41595 whole entry): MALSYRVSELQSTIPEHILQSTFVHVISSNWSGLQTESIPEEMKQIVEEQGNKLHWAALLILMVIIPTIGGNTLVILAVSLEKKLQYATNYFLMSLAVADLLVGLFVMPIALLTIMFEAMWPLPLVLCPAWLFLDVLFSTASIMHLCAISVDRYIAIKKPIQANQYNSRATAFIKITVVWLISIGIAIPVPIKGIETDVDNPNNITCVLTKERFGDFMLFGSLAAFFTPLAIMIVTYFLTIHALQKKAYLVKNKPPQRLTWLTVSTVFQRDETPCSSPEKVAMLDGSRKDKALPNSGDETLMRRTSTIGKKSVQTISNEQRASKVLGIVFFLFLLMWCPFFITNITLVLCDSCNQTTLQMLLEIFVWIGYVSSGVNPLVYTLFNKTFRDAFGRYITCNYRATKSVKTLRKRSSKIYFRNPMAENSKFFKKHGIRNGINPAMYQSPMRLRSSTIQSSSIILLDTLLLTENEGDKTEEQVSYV
The data set can be described thus: cell-based. Conditions: Ca^2+ flux, agonist; for pEC50: read-out: 5-HT2B EC50. The method, then: as §1

The next data set addresses T3, 5-HT1A receptor (Homo sapiens, UniProt P08908).
T3 construct: host or cells: CHO cells
T3 sequence (P08908 1-422): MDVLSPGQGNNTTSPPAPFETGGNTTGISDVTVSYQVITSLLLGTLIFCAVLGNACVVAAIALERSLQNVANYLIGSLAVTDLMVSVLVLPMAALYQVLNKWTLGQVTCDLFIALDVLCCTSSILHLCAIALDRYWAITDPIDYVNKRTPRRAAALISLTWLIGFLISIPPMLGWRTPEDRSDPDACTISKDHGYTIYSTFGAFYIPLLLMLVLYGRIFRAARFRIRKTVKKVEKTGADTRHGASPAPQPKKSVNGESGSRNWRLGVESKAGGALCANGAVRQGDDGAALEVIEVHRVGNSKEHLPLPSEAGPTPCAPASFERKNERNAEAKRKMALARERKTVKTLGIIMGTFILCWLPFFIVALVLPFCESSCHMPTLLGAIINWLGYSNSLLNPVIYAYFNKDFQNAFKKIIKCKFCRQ
The data set can be described thus: cell-based. Conditions: Ca^2+ flux, agonist; for pEC50: read-out: 5-HT1A EC50. The method, then: as §1

pEC50: −log10 of the molar value. A value given as a limit tells only on which side of the number the result lay.

Chain of 5-HT1B receptor (P28222 whole entry): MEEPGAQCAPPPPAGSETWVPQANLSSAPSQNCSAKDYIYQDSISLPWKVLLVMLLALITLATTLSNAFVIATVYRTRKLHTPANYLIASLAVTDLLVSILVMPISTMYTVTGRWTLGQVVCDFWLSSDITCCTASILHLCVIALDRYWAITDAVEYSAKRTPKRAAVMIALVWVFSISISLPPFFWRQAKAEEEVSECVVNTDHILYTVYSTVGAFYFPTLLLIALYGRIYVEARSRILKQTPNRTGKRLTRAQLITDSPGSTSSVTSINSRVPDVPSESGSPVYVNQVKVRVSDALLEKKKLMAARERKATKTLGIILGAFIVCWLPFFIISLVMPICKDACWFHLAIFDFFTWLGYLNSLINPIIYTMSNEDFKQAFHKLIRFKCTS
T1 sequence (P28223 whole entry): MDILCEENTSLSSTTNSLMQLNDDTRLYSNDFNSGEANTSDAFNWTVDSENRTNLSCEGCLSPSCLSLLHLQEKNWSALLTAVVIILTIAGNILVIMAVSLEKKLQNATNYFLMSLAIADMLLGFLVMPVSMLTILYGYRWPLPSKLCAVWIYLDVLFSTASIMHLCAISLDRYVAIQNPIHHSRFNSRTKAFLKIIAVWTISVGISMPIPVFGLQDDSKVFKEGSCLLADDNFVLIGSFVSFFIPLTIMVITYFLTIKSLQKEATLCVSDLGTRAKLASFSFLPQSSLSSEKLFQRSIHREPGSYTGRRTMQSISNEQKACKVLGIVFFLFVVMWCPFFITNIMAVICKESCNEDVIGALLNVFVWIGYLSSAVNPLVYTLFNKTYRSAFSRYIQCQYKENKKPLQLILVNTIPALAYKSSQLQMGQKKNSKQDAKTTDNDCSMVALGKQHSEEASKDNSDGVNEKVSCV

A word on the Ki: it is the dissociation constant of the complex between target and ligand, obtained from inhibition or displacement. As usually defined, the microsomal CLint is the rate of metabolic loss divided by the concentration. One may read the pEC50 as the EC50 on a negative log10 scale, so that one unit is a factor of ten. In the case of `CCN(CC)C(=O)[C@@H]1C=C2c3cccc4[nH]cc(c34)C[C@H]2N(Cc2ccc(OC)cc2)C1` [Compound 19, (6aR,9R)—N,N-diethyl-7-(4-methoxybenzyl)-4,6,6a,7,8,9-hexahydroindolo[4,3-fg]quinoline-9-carboxamide], the inhibitory constant (Ki) at 5-HT2A receptor [1] worked out at 5.58 nM. Also, the results for the “t1/2” value in data set [2], in data set [3] and in data set [4] were 10.0 min, 16.8 min and 7.2 min, respectively. Also, the microsomal CLint at 1 μM in data set [2] came out at 139 µL/min/mg; in data set [3], 82.7 µL/min/mg; in data set [4], 193 µL/min/mg. For the same compound, the pEC50 at 5-HT1B receptor was 5.23; at 5-HT2A receptor [5] it was 5.53; at 5-HT2B receptor, less than 5.00; at 5-HT1A receptor it was less than 5.00. Besides, the “5-HT1A % Act @ Max Dose” value on 5-HT1A receptor was −0.65%.
`CCN(CC)C(=O)[C@@H]1C=C2c3cccc4[nH]cc(c34)C[C@H]2N(CCc2ccc(OC)cc2)C1` [Compound 21, (6aR,9R)—N,N-diethyl-7-(4-methoxyphenethyl)-4,6,6a,7,8,9-hexahydroindolo[4,3-fg]quinoline-9-carboxamide]: the Ki on 5-HT2A receptor [1] was 1.93 nM. Besides, the “t1/2” value in data set [2] was determined as 4.3 min; in data set [3] it was 3.8 min; in data set [4], 1.9 min. For the same compound, the microsomal CLint at 1 μM in data set [2] came out at 323 µL/min/mg; in data set [3], 368 µL/min/mg; in data set [4], 717 µL/min/mg. Moreover, the negative-log EC50 (pEC50) on 5-HT1B receptor was 5.56; at 5-HT2A receptor [5], 6.21; at 5-HT2B receptor it was less than 5.00; on 5-HT1A receptor, less than 5.00. Further, the “5-HT1A % Act @ Max Dose” value at 5-HT1A receptor turned out to be 8.2%.
For `CCN(CC)C(=O)[C@@H]1C=C2c3cccc4[nH]cc(c34)C[C@H]2N(CCc2cccc(OC)c2)C1` [Compound 20, (6aR,9R)—N,N-diethyl-7-(3-methoxyphenethyl)-4,6,6a,7,8,9-hexahydroindolo[4,3-fg]quinoline-9-carboxamide], on 5-HT2A receptor [1], the Ki was 1.03 nM. Also, the “t1/2” value in data set [2] was determined as 1.2 min; in data set [3], 2.1 min; in data set [4], 0.9 min. Besides, the microsomal CLint at 1 μM in data set [2] worked out at 1150 µL/min/mg; in data set [3] it was 649 µL/min/mg; in data set [4], 1550 µL/min/mg. Besides, the pEC50 at 5-HT1B receptor is less than 5.00; on 5-HT2A receptor [5], 6.58; at 5-HT2B receptor, less than 5.00; at 5-HT1A receptor, less than 5.00. For the same compound, at 5-HT2B receptor, the “5-HT2B % Act @ Max Dose” value is listed as 3.60%.
Regarding `CCN(CC)C(=O)[C@@H]1C=C2c3cccc4[nH]cc(c34)C[C@H]2N(CCc2ccccn2)C1` [Compound 23, (6aR,9R)—N,N-diethyl-7-(2-(pyridin-2-yl)ethyl)-4,6,6a,7,8,9-hexahydroindolo[4,3-fg]quinoline-9-carboxamide], the Ki on 5-HT2A receptor [1] was found to be 26.6 nM. Besides, the “t1/2” value is listed as 4.2 min in data set [2], 7.2 min in data set [3] and 1.8 min in data set [4]. The microsomal CLint at 1 μM in data set [2] turned out to be 332 µL/min/mg; in data set [3], 193 µL/min/mg; in data set [4], 769 µL/min/mg. In addition, the pEC50 on 5-HT1B receptor was 6.35; on 5-HT2A receptor [5], 6.29; on 5-HT2B receptor, less than 5.00; on 5-HT1A receptor, less than 5.00.
Consider `CCN(CC)C(=O)[C@@H]1C=C2c3cccc4[nH]cc(c34)C[C@H]2N(Cc2ccccn2)C1` [Compound 22, (6aR,9R)—N,N-diethyl-7-(pyridin-2-ylmethyl)-4,6,6a,7,8,9-hexahydroindolo[4,3-fg]quinoline-9-carboxamide], for which, at 5-HT2A receptor [1], the Ki is 28.4 nM. Moreover, the “t1/2” value in data set [2] worked out at 13.2 min; in data set [3], 23.8 min; in data set [4] it was 9.2 min. Also, the microsomal CLint at 1 μM was determined as 105 µL/min/mg in data set [2], 58.2 µL/min/mg in data set [3] and 150 µL/min/mg in data set [4]. Also, the pEC50 was 6.07 at 5-HT1B receptor, 6.13 on 5-HT2A receptor [5], less than 5.00 at 5-HT2B receptor and 5.11 at 5-HT1A receptor.
For `CCN(CC)C(=O)[C@@H]1C=C2c3cccc4[nH]cc(c34)C[C@H]2N(Cc2cccc(OC)c2)C1` [Compound 18, (6aR,9R)—N,N-diethyl-7-(3-methoxybenzyl)-4,6,6a,7,8,9-hexahydroindolo[4,3-fg]quinoline-9-carboxamide], at 5-HT2A receptor [1], the Ki is 3.41 nM. The “t1/2” value in data set [2] came to 5.3 min; in data set [3] it was 13.6 min; in data set [4] it was 2.6 min. In addition, the microsomal CLint at 1 μM in data set [2] was determined as 263 µL/min/mg; in data set [3], 102 µL/min/mg; in data set [4], 524 µL/min/mg. Also, the negative logarithm of the EC50 (pEC50) on 5-HT1B receptor is 5.75; at 5-HT2A receptor [5], 6.64; on 5-HT2B receptor, less than 5.00; at 5-HT1A receptor, less than 5.00.
As for `CCN(CC)C(=O)[C@@H]1C=C2c3cccc4[nH]cc(c34)C[C@H]2N(Cc2ccccc2O)C1` [Compound 16, (6aR,9R)—N,N-diethyl-7-(2-hydroxybenzyl)-4,6,6a,7,8,9-hexahydroindolo[4,3-fg]quinoline-9-carboxamide], the Ki on 5-HT2A receptor [1] was determined as 2.18 nM. Besides, the “t1/2” value in data set [2] turned out to be 2.2 min; in data set [3], 4.9 min; in data set [4], 1.3 min. Further, the values for the intrinsic metabolic clearance (microsomal CLint) at 1 μM in data set [2], in data set [3] and in data set [4] were 616 µL/min/mg, 286 µL/min/mg and 1050 µL/min/mg, respectively. For the same compound, the pEC50 at 5-HT1B receptor is 6.17; on 5-HT2A receptor [5] it was 6.26; on 5-HT2B receptor, less than 5.00; at 5-HT1A receptor, less than 5.00.

These data come from patent US20230116703A1, “NOVEL ERGOLINES AND METHODS OF TREATING MOOD DISORDERS” (priority 2021, published 2023).
